For 39 compounds, IC50 and EC50 results are on record in patent US8907103B2, “Glucagon antagonists” (Metabasis Therapeutics, Inc., priority 2008, dated 2014).

Where two headings read alike, the source gives them in different places.

The target of one assay is T1, human glucagon receptor (Homo sapiens, UniProt P47871).
T1 construct: host or cells: human liver samples or a recombinant cell line (alternatives)
Nature of the assay: Human glucagon receptor affinity ([125I]glucagon displacement, membrane preparation). It counts as binding. As to the method:
Compounds provided herein are dissolved in a suitable solvent (e.g., dimethlysulfoxide) at a concentration of 10 mM and then diluted in buffer (e.g., 50 mM Hepes, pH 7.4, 5 mM MgCl2, 1 mM CaCl2, and 0.2% BSA) to concentrations ranging from 1 nM to 100 μM. Compounds (20 μL/well) and [^125I]glucagon at the final concentration of 0.125 nM (20 μl/well) (Perkin Elmer) are added to and mixed in wells of a 96-well plate (Costar, Corning) containing 120 μL of buffer. Next, an appropriate aliquot of a membrane preparation containing the human glucagon receptor (isolated from human liver samples or obtained from a recombinant cell line) is added to the wells. The binding mixtures are incubated for 2 hrs at room temperature. In the meantime, a MultiScreen 96-well filter plate (Millipore) is treated with 200 μL of the buffer, which is vacuumed through the filter just before the binding mixtures are transferred to the plate. At the end of incubation, binding mixtures are transferred to the wells of the MultiScreen 96-well filter plate and filtered through by applying vacuum. The plate is washed once with 200 μL per well of the buffer, and the filters are dried and counted using a gamma counter.

The next assay deals with human hepatocytes. Nature of the assay: Functional antagonism of glucagon-stimulated glucose production in hepatocytes. The assay is classed as cell-based. The note with it: human hepatocyte assay, 1 nM glucagon; read-out: Hu Hepatocyte EC50. On the procedure:
Primary human, monkey, dog, rat, or mouse hepatocytes are seeded onto collagen-coated 24-well plates in Williams E medium (supplemented with 10% fetal bovine serum) and incubated at 37° C. overnight in M199 medium (supplemented with 15 mM glucose and 10 nM human insulin). The following day cells are washed twice with a glucose-free Kreb-bicarbonate buffer, pH 7.4, containing 0.1% BSA. Cells are then incubated at 37° C. with the aforementioned buffer containing 1 nM glucagon and varying concentrations of a glucagon antagonist (0-100 microM). Control wells without glucagon or antagonist are also included. After 1 hour, an aliquot of the medium is removed and analyzed for glucose content by means of the glucose oxidase method. The background glucose levels observed in the control wells are subtracted from the glucagon and antagonist containing wells. A graph of % glucose concentration vs drug concentration is plotted and an EC50 value for inhibition of glucose production generated using Sigmaplot software (SAS, Cary, N.C.). Alternatively, intracellular cAMP levels are measured using standard kits and EC50 values determined by plotting these levels against drug concentration. Antagonists of the glucagon receptor inhibit glucagon-induced cAMP production.

Setting [1] is: R-isomer, read-out: Hu 1050 (nM) R.
[2] abbreviates: human glucagon receptor binding assay, stereo column says racemic or R-isomer, read-out: Hu IC50.
Where [3] appears, read: S-isomer, read-out: Hu 1050 (nM) S.

T1 sequence (P47871 26-477): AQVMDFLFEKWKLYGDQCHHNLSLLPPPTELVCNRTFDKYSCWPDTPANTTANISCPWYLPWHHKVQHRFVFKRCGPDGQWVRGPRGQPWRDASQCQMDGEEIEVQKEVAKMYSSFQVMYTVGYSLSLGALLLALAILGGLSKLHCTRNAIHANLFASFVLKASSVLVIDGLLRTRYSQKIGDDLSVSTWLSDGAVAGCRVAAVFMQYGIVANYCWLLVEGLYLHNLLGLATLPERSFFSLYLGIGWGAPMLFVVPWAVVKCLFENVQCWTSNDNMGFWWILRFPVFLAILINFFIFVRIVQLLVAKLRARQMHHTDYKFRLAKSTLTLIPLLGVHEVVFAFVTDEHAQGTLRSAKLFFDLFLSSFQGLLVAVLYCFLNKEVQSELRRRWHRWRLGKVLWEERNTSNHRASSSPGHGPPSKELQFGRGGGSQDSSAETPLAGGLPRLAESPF

With `Cc1cc(Cl)ccc1-c1ccc(NC(=O)C(Cc2ccc(C(=O)NCCS(=O)(=O)O)cc2)c2ccc(C3=CCC(C(C)(C)C)CC3)cc2)cc1` (single isomer, unassigned) [drawing 127 R], at human glucagon receptor (setting [1]), the IC50 turned out to be 6 nM.

Take `Cc1ccc(-c2ccc(NC(=O)C(Cc3ccc(C(=O)NCCS(=O)(=O)O)cc3)c3ccc(C4=CCC(C)(C)CC4)cc3)c(Cl)c2)cc1Cl` (racemic): the IC50 on human glucagon receptor (setting [2]) was 16 nM.

As to `CC(C)(C)C1CCC(c2ccc(C(Cc3ccc(C(=O)NCCS(=O)(=O)O)cc3)C(=O)Nc3ccc(-c4nc5ccccc5o4)cc3)cc2)CC1` (racemic), at human glucagon receptor (setting [2]), the IC50 is 18 nM. Further, the EC50 in the assay with human hepatocytes came out at 161 nM.

For `Cc1cc(Cl)ccc1-c1ccc(NC(=O)C(Cc2ccc(C(=O)NCCS(=O)(=O)O)cc2)c2cccc(-c3ccc(C(C)(C)C)cc3)c2)cc1` (racemic), the IC50 at human glucagon receptor (setting [2]) came out at 15 nM. The EC50 in the assay on human hepatocytes came out at 329 nM.

`Cc1cc(C)c(-c2ccc(NC(=O)C(Cc3ccc(C(=O)NCCS(=O)(=O)O)cc3)c3ccc(C4=CCC(C)(C)CC4)cc3)cc2)c(C)c1` (racemic): the IC50 at human glucagon receptor (setting [2]) was 12 nM.

As for `Cc1ccc(-c2ccc(NC(=O)C(Cc3ccc(C(=O)NCCS(=O)(=O)O)cc3)c3ccc(-c4ccc(C(C)(C)C)cc4)cc3)cc2)cc1Cl` (racemic), at human glucagon receptor (setting [2]), the IC50 worked out at 10 nM.

Take `CC(C)(C)c1ccc(-c2ccc(C(Cc3ccc(C(=O)NCCS(=O)(=O)O)cc3)C(=O)Nc3ccc(-c4cccc(Cl)c4)cc3)cc2)cc1` (racemic): the IC50 at human glucagon receptor (setting [2]) is 12 nM. Also, the EC50 in the assay on human hepatocytes is 661 nM.

Take `CC(C)(C)c1ccc(-c2ccc(C(Cc3ccc(C(=O)NCCS(=O)(=O)O)cc3)C(=O)Nc3ccc(-c4ccc(Cl)c(Cl)c4)cc3)cc2)cc1` (racemic): at human glucagon receptor (setting [2]), the IC50 worked out at 10 nM.

Turning to `O=C(NCCS(=O)(=O)O)c1ccc(CC(C(=O)Nc2ccc(-c3ccc(C(F)(F)F)cc3Cl)cc2)c2ccc(C3=CCCCC3)cc2)cc1` (racemic), the IC50 on human glucagon receptor (setting [2]) turned out to be 16 nM.

With `Cc1cc(Cl)ccc1-c1ccc(NC(=O)C(Cc2ccc(C(=O)NCCS(=O)(=O)O)cc2)c2ccc(C3=CCC(C)(C)CC3)cc2)cc1` (stereo not drawn) [drawing 133 R], the IC50 on human glucagon receptor (setting [1]) turned out to be 10 nM.

In the case of `Cc1cc(NC(=O)C(Cc2ccc(C(=O)NCCS(=O)(=O)O)cc2)c2ccc(-c3ccc(C(C)(C)C)cc3)cc2)ccc1-c1nc2ccccc2o1` (racemic), the IC50 at human glucagon receptor (setting [2]) worked out at 8 nM. Besides, the EC50 in the assay with human hepatocytes came to 167 nM.

Regarding `Cc1ccc(Cl)cc1-c1ccc(NC(=O)C(Cc2ccc(C(=O)NCCS(=O)(=O)O)cc2)c2ccc(-c3ccc(C(C)(C)C)cc3)cc2)cc1` (racemic), at human glucagon receptor (setting [2]), the IC50 amounted to 10 nM. For the same compound, the EC50 in the assay on human hepatocytes is 192 nM.

`Cc1cc(Cl)ccc1-c1ccc(NC(=O)C(Cc2ccc(C(=O)NCCS(=O)(=O)O)cc2)c2cccc(C3=CCCCC3)c2)cc1` (racemic): the IC50 at human glucagon receptor (setting [2]) is 14 nM. In addition, the 50% effective concentration (EC50) in the assay on human hepatocytes was 32 nM.

On to `CC(C)(C)c1ccc(-c2cccc(C(Cc3ccc(C(=O)NCCS(=O)(=O)O)cc3)C(=O)Nc3ccc(-c4ccc(Cl)cc4Cl)cc3)c2)cc1` (racemic), for which the IC50 at human glucagon receptor (setting [2]) came out at 15 nM. The concentration for a half-maximal effect (EC50) in the assay on human hepatocytes stood at 215 nM.

As to `CC1(C)CC=C(c2ccc(C(Cc3ccc(C(=O)NCCS(=O)(=O)O)cc3)C(=O)Nc3ccc(-c4ccc(C(C)(C)C)cc4)cc3Cl)cc2)CC1` (racemic), the IC50 at human glucagon receptor (setting [2]) is 10 nM.

With `Cc1cc(Cl)ccc1-c1ccc(NC(=O)C(Cc2ccc(C(=O)NCCS(=O)(=O)O)cc2)c2ccc(C3=CCC(C(C)(C)C)CC3)cc2)cc1` (single isomer, unassigned) [drawing 129 R], on human glucagon receptor (setting [1]), the IC50 turned out to be 7 nM.

In the case of `Cc1cc(Cl)ccc1-c1ccc(NC(=O)C(Cc2ccc(C(=O)NCCS(=O)(=O)O)cc2)c2ccc(C3=CCC(C(C)(C)C)CC3)cc2)cc1` (single isomer, unassigned) [drawing 127 S], the IC50 on human glucagon receptor (setting [3]) amounted to 20 nM.

For the compound `Cc1cccc2oc(-c3ccc(NC(=O)C(Cc4ccc(C(=O)NCCS(=O)(=O)O)cc4)c4ccc(-c5ccc(C(C)(C)C)cc5)cc4)cc3)nc12` (single isomer, unassigned) [drawing 135 S], the IC50 at human glucagon receptor (setting [3]) was 49 nM.

For the compound `Cc1cc(Cl)ccc1-c1ccc(NC(=O)C(Cc2ccc(C(=O)NCCS(=O)(=O)O)cc2)c2ccc(C=CC(C)(C)C)cc2)cc1` (single isomer, unassigned) [drawing 125 R], the IC50 on human glucagon receptor (setting [1]) was determined as 14 nM.

Regarding `CC12CCC(C=C1c1ccc(C(Cc3ccc(C(=O)NCCS(=O)(=O)O)cc3)C(=O)Nc3ccc(-c4nc5ccccc5o4)cc3)cc1)C2(C)C` (racemic), the IC50 on human glucagon receptor (setting [2]) is 18 nM. In addition, the EC50 in the assay with human hepatocytes was determined as 27 nM.

In the case of `Cc1cc(Cl)ccc1-c1ccc(NC(=O)C(Cc2ccc(C(=O)NCCS(=O)(=O)O)cc2)c2ccc(C=CC(C)(C)C)cc2)cc1` (single isomer, unassigned) [drawing 125 S], the IC50 on human glucagon receptor (setting [3]) was 61 nM.

As to `Cc1ccc(-c2ccc(NC(=O)C(Cc3ccc(C(=O)NCCS(=O)(=O)O)cc3)c3ccc(C4=CCC(C)(C)CC4)cc3)c(Cl)c2)c(C)c1` (racemic), the IC50 at human glucagon receptor (setting [2]) was determined as 14 nM.

Take `CC(C)(C)c1ccc(-c2ccc(C(Cc3ccc(C(=O)NCCS(=O)(=O)O)cc3)C(=O)Nc3ccc(C4=CCC(C(C)(C)C)CC4)cc3)cc2)cc1` (racemic): the IC50 at human glucagon receptor (setting [2]) came to 12 nM.

On to `CC(C)(C)C1CC=C(c2ccc(C(Cc3ccc(C(=O)NCCS(=O)(=O)O)cc3)C(=O)Nc3ccc(-c4nc5ccccc5o4)cc3)cc2)CC1` (racemic), for which the IC50 at human glucagon receptor (setting [2]) turned out to be 8 nM. In the assay on human hepatocytes, the EC50 worked out at 116 nM.

In the case of `CC(C)(C)C1CCC(c2ccc(C(Cc3ccc(C(=O)NCCS(=O)(=O)O)cc3)C(=O)Nc3ccc(-c4ccc(C(F)(F)F)cc4Cl)cc3)cc2)CC1` (racemic), the IC50 on human glucagon receptor (setting [2]) turned out to be 12 nM. Also, in the assay with human hepatocytes, the EC50 was found to be 30 nM.

With `CC(C)(C)c1ccc(-c2ccc(C(Cc3ccc(C(=O)NCCS(=O)(=O)O)cc3)C(=O)Nc3ccc(-c4ccccc4Cl)cc3)cc2)cc1` (racemic), the IC50 at human glucagon receptor (setting [2]) was 18 nM. In addition, the EC50 in the assay with human hepatocytes was 412 nM.

As to `Cc1cc(Cl)ccc1-c1ccc(NC(=O)C(Cc2ccc(C(=O)NCCS(=O)(=O)O)cc2)c2cccc(C3=CCC(C)(C)C=C3)c2)cc1` (racemic), the IC50 at human glucagon receptor (setting [2]) is 19 nM. The concentration for a half-maximal effect (EC50) in the assay with human hepatocytes came out at 108 nM.

On to `CC(C)(C)c1ccc(-c2ccc(C(Cc3ccc(C(=O)NCCS(=O)(=O)O)cc3)C(=O)Nc3ccc(-c4cc(Cl)cc(Cl)c4)cc3)cc2)cc1` (racemic), for which the IC50 at human glucagon receptor (setting [2]) stood at 15 nM. Moreover, the EC50 in the assay on human hepatocytes came to 132 nM.

For the compound `Cc1cc(C)c2oc(-c3ccc(NC(=O)C(Cc4ccc(C(=O)NCCS(=O)(=O)O)cc4)c4ccc(-c5ccc(C(C)(C)C)cc5)cc4)cc3)nc2c1` (racemic), the IC50 on human glucagon receptor (setting [2]) is 11 nM. For the same compound, the EC50 with human hepatocytes is 560 nM.

Consider `CC1(C)CC=C(c2ccc(C(Cc3ccc(C(=O)NCCS(=O)(=O)O)cc3)C(=O)Nc3ccc(-c4ccc(C(F)(F)F)cc4Cl)cc3)cc2)CC1` (racemic), for which the IC50 at human glucagon receptor (setting [2]) worked out at 15 nM. Besides, in the assay with human hepatocytes, the EC50 was 137 nM.

In the case of `Cc1cc(C(F)(F)F)ccc1-c1ccc(NC(=O)C(Cc2ccc(C(=O)NCCS(=O)(=O)O)cc2)c2ccc(C3=CCCCC3)cc2)cc1` (racemic), the IC50 at human glucagon receptor (setting [2]) was 16 nM. For the same compound, the EC50 with human hepatocytes came to 78 nM.

Take `CC1(C)C=CC(c2cccc(C(Cc3ccc(C(=O)NCCS(=O)(=O)O)cc3)C(=O)Nc3ccc(-c4ccc(Cl)cc4Cl)cc3)c2)=CC1` (racemic): the IC50 on human glucagon receptor (setting [2]) came to 18 nM. Also, in the assay on human hepatocytes, the EC50 was 61 nM.

Regarding `Cc1cc(Cl)ccc1-c1ccc(NC(=O)C(Cc2ccc(C(=O)NCCS(=O)(=O)O)cc2)c2ccc(C3=CCC(C(C)(C)C)CC3)cc2)cc1` (single isomer, unassigned) [drawing 129 S], the IC50 at human glucagon receptor (setting [3]) was found to be 19 nM.

Regarding `CC(C)(C)c1ccc(-c2ccc(C(Cc3ccc(C(=O)NCCS(=O)(=O)O)cc3)C(=O)Nc3ccc(-c4c(Cl)cccc4Cl)cc3)cc2)cc1` (racemic), the IC50 at human glucagon receptor (setting [2]) was found to be 18 nM.

On to `CC(C)(C)C1CCC(c2ccc(C(Cc3ccc(C(=O)NCCS(=O)(=O)O)cc3)C(=O)Nc3ccc(-c4ccc(Cl)cc4Cl)cc3)cc2)CC1` (racemic) [drawing 110], for which, at human glucagon receptor (setting [2]), the IC50 came to 18 nM.

Regarding `CC(C)(C)c1ccc(-c2ccc(C(Cc3ccc(C(=O)NCCS(=O)(=O)O)cc3)C(=O)Nc3ccc(-c4nc5ccccc5o4)cc3)cc2)cc1` (racemic), the IC50 at human glucagon receptor (setting [2]) was 12 nM. In the assay with human hepatocytes, the half-maximal effective concentration (EC50) was 241 nM.

Turning to `Cc1cc(Cl)ccc1-c1ccc(NC(=O)C(Cc2ccc(C(=O)NCCS(=O)(=O)O)cc2)c2ccc(-c3ccc(C(C)(C)C)cc3)cc2)cc1` (stereo not drawn) [drawing 131 R], the IC50 at human glucagon receptor (setting [1]) was found to be 11 nM.

In the case of `Cc1cc(Cl)ccc1-c1ccc(NC(=O)C(Cc2ccc(C(=O)NCCS(=O)(=O)O)cc2)c2ccc(-c3ccc(C(C)(C)C)cc3)cc2)c(Cl)c1` (racemic), the IC50 on human glucagon receptor (setting [2]) stood at 19 nM.

`Cc1cccc2oc(-c3ccc(NC(=O)C(Cc4ccc(C(=O)NCCS(=O)(=O)O)cc4)c4ccc(-c5ccc(C(C)(C)C)cc5)cc4)cc3)nc12` (single isomer, unassigned) [drawing 135 R]: the IC50 at human glucagon receptor (setting [1]) amounted to 10 nM.
